Ends that are not written are not given here.

Common to all, as to format: cell-based, human
In assay [1] the test system is ECV304 or HUVEC cells. As to the kind of experiment: Actin cytoskeleton effects of SSTR selective ligands on endothelial cells. The protocol:
(§1) The cells were subsequently incubated at 37° C. for 30 min, fixed in 4% PFA for 5 min and washed in PBS. The actin cytoskeleton was visualized by incubating the cells with ALEXA-488 conjugated phalloidin (1:50, Molecular Probes Inc., Eugene, Oreg.) for 15 min at room temperature. Cells were screened using a Zeiss Axiophot microscope as previously described. Similar protocols were used to evaluate the effects SSTR1 selective ligands on endothelial cells.

The subject of assay [2] is ECV304 cells. As to the kind of experiment: ECV304/Matrigel in vitro angiogenesis model (capillary-like tube formation). The conditions noted are these: sub-micromolar and higher concentrations; ECV304 on Matrigel. An excerpt: In one aspect, the present invention utilises an established model system for assaying the effect of SSTR ligands on human angiogenesis. In one embodiment, the model system comprises the spontaneously transformed human umbilical vein endothelial cell line, ECV304, grown on a Matrigel substrate (Hughes, 1996, Experimental Cell Research 225:171-185). Matrigel is a solubilized basement membrane extract that promotes the differentiation of endothelial cells into capillary tube-like structures in vitro. It has been shown that cytoskeletal reorganization occurs when human umbilical vein endothelial cells undergo the morphological changes associated with neovascular tube formation on a Matrigel substrate (Grant et al., 1991, In Vitro Cell Dev. Biol. 27A(4):327-36.). […] This assay can also be used to identify […] ligands that stimulate the process of angiogenesis. […]
ECV304 cells (3.5×10^4 in 0.5 mL complete M199 medium) were placed onto 24-well plates that were pre-coated with 0.125 mL of Matrigel (Becton-Dickinson). […] After 24 hours, images of tube-formation were recorded on film. Images were converted into a digital format using a Hewlett-Packard ScanJet 4C/T scanner, the summed length of capillary-like tubes was quantified using Optimas 6.1 image analysis software (Optimas Corp.).

The subject of assay [3] is ECV304 cells. The experiment in a line: Actin cytoskeleton visualised with fluorescently labelled phalloidin. The conditions noted are these: 10 nM, 37° C. for 30 min. As for the experimental part: as §1
Assay [4] deals with Na/H exchanger on ECV304 cells. As to the kind of experiment: Intracellular pH imaging of the Na/H exchanger.

In the case of “des-AA^1,2,5 [DTrp^8,IAamp^9]SS [SSTR1 '499 agonist]”, in assay [1], the actin stress fibres entry is on record as “decrease in stress fibres” and the lamellipodia formation result was “increase in lamellipodia formation”.
Regarding “Somatostatin-14 (AGCKNFFWKTFTSC; ends and bridges not checked; cysteine pairing not given here; UniProt P61278 103-116, looked up) [SS14, native 14 amino acid form of somatostatin, an endogenous cyclic peptide; agonist of all somatostatin receptor subtypes]”, the “inhibition of neovascular growth” value in assay [2] is “significantly inhibit neovascular growth”. For the same substance, in assay [3], the actin stress fibres entry was “loss of long stress fibers”; the “lamellipodia at the plasma membrane” value is “increase in the number and size of lamellipodia”. In addition, in assay [4], the “effect on Na/H exchanger” value is listed as “inhibit”.

The values are drawn from patent US20020137676A1, “Selective treatment of endothelial somatostatin receptors” (priority 1998, published 2002).
